Results on four molecules are retold here after US20130316948A1, “GROWTH HORMONE RECEPTOR DEFICIENCY CAUSES A MAJOR REDUCTION IN PRO-AGING SIGNALING, CANCER AND DIABETES IN HUMANS” (UNIVERSITY OF SOUTHERN CALIFORNIA, priority 2011, published 2013).

The nature of data set [1]: Short term immunization with human GH before cyclophosphamide: body weight and complete blood count. Type of data set: in vivo, mouse. Particulars: cyclophosphamide i.p., 300 mg/kg, CBC 7-days after CP. Here is the method:
FIG. 17A provides plots of the body weight of mice with short term immunization (STI) with human GH (half-filled arrowheads) after cyclophosphamide treatment (cyclophosphamide (CP) i.p., 300 mg/kg, indicated by the solid arrowhead) (Sham means treated with buffer and no chemo);
FIG. 17B provides a histogram of the complete blood count (CBC) 7-days after CP treatment (Data are presented as percentage of pre-chemo value);
FIG. 17A provides plots of the body weight of mice with short term immunization (STI) with human GH (half-filled arrowheads) after cyclophosphamide treatment (cyclophosphamide (CP) i.p., 300 mg/kg, indicated by solid arrowheads). FIG. 17B provides a histogram of the complete blood count (CBC) 7-days after CP treatment (Data are presented as percentage of pre-chemo value).

A short description of data set [2]: Body weight of mice immunized with human Growth Hormone. It is filed as in vivo, mouse. Particulars: 20 male and 20 female mice, versus time. The text has this: FIG. 16A provides a plot of body weight of mice immunized with human Growth Hormone (huGH) (20 male and 20 female) versus time.
This figure provides a plot of body weight of mice immunized with human Growth Hormone (huGH) (20 male and 20 female) versus time.

A further data set deals with human GH (Homo sapiens, UniProt P01241). Nature of the data set: Slot blot of anti-huGH activity in serum from mice immunized with huGH. Particulars: slot blot against immobilized human GH. Type of data set: in vivo, mouse.
human GH, sequence (P01241 27-217): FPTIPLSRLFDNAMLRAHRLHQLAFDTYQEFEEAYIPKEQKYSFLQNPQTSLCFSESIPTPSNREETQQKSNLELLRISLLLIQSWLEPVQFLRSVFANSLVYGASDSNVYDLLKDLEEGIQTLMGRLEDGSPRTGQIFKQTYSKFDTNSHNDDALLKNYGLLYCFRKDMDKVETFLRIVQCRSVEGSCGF
Data set [3] concerns pancreatic carcinoma cells. Particulars: Mol Cancer Ther May 2009 8:1095-1105; cited from earlier work.
In a further data set the test system is HMECs. In words: LDH cytotoxicity assay after H2O2 in epithelial cells incubated in serum. It is filed as cell-based, human. Particulars: 200 ng/ml IGF-I added to GHRD serum, 700 μM H2O2.
The test system of the next data set is primary glial cells. Nature of the data set: 24 hour LDH release from primary glial cells under oxidative damage. It is filed as cell-based. How it is done: FIG. 20 provides a plot of the 24 hour lactate dehydrogenase (LDH) release from the treatment of primary glial cells with the IGF-I inhibitor insulin-like growth factor-binding protein 1 (IGFBP1) and with insulin-like growth factor-binding protein 2 (IGFBP2). […] IGFBP1 is a strong IGF-I inhibtor. Other IGFBPs can even increase IGF-I signaling.

Consider “huGH: human Growth Hormone used to immunize mice to generate inhibitory antibodies against GH”, for which the “Effect of immunization on chemotherapy side effects (body weight, CBC)” value in data set [1] is listed as “protective effect against chemotherapy side effects”. Besides, the “Body weight of immunized mice” value in data set [2] is “Lower body weight”. The “Immunized mice whose serum showed strong anti-huGH activity” value with human GH is on record as 34 out of 40. Take “AMG 479: fully human anti-insulin-like growth factor receptor type I monoclonal antibody”: the “Effect on pancreatic carcinoma cells” value in data set [3] is “inhibits the growth and survival of pancreatic carcinoma cells”.

For the molecule “IGF-I: insulin like growth factor-I, added at 200 ng/ml to GHRD serum”, the “Effect on the higher cytotoxicity seen in GHRD serum” value with HMECs is reported as “completely reversed”.

B1: IGFBP1: IGF-I inhibitor insulin-like growth factor-binding protein 1 (protein, UniProt P08833 26-259, looked up)
Insulin-like growth …: APWQCAPCSAEKLALCPPVSASCSEVTRSAGCGCCPMCALPLGAACGVATARCARGLSCRALPGEQQPLHALTRGQGACVQESDASAPHAAEAGSPESPESTEITEEELLDNFHLMAPSEEDHSILWDAISTYDGSKALHVTNIKKWKEPCRIELYRVVESLAKAQETSGEEISKFYLPNCNKNGFYHSRQCETSMDGEAGLCWCVYPWNGKRIPGSPEIRGDPNCQIYFNVQN
Turning to B1, the “Effect on oxidative damage (LDH release)” value with primary glial cells was “protects them against oxidative damage”.
